Like-named read-outs stand apart in the source and are kept apart here.
Key:
Test in all cases: HotSpot kinase profiling
Format in all cases: biochemical
PDGFRa = biological target: T1, PDGFRa (Homo sapiens, UniProt P16234)
T1 construct: purchased Reaction Biology Corp
How it was run: (§1)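 Percent inhibition, averaged when run more than once and referenced to a DMSO negative control, came from a radioactive filter-binding readout on P81 paper. Reactions of kinase with freshly made substrate and cofactors ran for 2 h at room temperature.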

CK1epsilon = biological target: T2, CK1epsilon (Homo sapiens, UniProt P49674)
T2 construct: purchased Reaction Biology Corp
How it was run: as §1

MEK2 = biological target: T3, MEK2 (Homo sapiens, UniProt P36507)
T3 construct: purchased Reaction Biology Corp
How it was run: as §1

CAMKK1 = biological target: T4, CAMKK1 (Homo sapiens, UniProt Q8N5S9)
T4 construct: purchased Reaction Biology Corp
How it was run: as §1

MAPKAPK5/PRAK = biological target: T5, MAPKAPK5/PRAK (Homo sapiens, UniProt Q8IW41)
T5 construct: purchased Reaction Biology Corp
T5 sequence (Q8IW41 1-473): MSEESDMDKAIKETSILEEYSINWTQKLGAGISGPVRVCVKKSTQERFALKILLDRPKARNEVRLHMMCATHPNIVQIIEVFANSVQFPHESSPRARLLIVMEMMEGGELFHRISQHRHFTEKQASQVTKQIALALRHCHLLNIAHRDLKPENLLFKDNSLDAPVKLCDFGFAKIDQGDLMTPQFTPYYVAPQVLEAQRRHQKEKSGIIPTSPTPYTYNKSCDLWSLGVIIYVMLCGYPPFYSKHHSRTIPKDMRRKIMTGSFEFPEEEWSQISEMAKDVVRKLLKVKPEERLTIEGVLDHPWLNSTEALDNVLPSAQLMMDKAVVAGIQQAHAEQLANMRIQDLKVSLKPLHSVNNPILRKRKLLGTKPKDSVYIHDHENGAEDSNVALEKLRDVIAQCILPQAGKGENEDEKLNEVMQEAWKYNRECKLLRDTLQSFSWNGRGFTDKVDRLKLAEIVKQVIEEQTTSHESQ
How it was run: as §1

ZAK/MLTK = biological target: T6, ZAK/MLTK (Homo sapiens, UniProt Q9NYL2)
T6 construct: purchased Reaction Biology Corp
How it was run: as §1

Aurora A = biological target: T7, Aurora A (Homo sapiens, UniProt O14965)
T7 construct: purchased Reaction Biology Corp
T7 sequence (O14965 1-403): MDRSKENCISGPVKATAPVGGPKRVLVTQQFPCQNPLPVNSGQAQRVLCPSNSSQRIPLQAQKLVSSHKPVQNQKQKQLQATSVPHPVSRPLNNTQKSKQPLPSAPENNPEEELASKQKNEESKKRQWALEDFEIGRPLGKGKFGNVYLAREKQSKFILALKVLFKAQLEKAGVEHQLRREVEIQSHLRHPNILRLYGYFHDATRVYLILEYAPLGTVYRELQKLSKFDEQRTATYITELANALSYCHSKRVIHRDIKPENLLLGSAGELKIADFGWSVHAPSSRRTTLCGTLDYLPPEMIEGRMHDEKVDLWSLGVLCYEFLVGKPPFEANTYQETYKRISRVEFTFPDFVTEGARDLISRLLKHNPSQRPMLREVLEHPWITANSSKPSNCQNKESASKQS
How it was run: as §1

AXL = biological target: T8, AXL (Homo sapiens, UniProt P30530)
T8 construct: purchased Reaction Biology Corp
T8 sequence (P30530 26-894): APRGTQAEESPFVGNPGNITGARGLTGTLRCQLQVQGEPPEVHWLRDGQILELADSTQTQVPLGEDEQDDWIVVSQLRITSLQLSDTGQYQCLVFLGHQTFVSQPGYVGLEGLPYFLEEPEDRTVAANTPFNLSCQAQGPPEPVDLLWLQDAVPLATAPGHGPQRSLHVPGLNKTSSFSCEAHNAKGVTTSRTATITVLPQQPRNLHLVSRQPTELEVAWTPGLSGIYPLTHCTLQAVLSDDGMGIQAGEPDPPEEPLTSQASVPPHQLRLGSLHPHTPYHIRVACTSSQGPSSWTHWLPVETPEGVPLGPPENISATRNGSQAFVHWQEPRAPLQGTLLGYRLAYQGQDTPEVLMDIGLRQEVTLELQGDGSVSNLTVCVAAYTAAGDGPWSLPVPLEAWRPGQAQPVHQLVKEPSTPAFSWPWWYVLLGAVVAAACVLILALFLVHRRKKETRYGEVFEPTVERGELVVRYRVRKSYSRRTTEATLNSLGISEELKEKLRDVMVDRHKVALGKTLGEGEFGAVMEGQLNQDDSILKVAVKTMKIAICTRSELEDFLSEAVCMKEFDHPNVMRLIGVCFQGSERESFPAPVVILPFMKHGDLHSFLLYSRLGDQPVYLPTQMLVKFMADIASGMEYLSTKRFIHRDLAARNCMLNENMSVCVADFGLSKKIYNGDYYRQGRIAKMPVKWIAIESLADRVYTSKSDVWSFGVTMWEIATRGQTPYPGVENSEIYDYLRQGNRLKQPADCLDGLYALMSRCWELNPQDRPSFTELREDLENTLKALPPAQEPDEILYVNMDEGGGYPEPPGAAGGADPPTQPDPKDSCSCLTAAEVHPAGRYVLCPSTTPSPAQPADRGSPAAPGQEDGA
How it was run: as §1

SYK = biological target: T9, SYK (Homo sapiens, UniProt P43405)
T9 construct: purchased Reaction Biology Corp

[1] = read-out: % Enzyme Activity (relative to DMSO controls) Run 1
[2] = read-out: % Enzyme Activity (relative to DMSO controls) Run 2

T6 sequence (Q9NYL2 whole entry): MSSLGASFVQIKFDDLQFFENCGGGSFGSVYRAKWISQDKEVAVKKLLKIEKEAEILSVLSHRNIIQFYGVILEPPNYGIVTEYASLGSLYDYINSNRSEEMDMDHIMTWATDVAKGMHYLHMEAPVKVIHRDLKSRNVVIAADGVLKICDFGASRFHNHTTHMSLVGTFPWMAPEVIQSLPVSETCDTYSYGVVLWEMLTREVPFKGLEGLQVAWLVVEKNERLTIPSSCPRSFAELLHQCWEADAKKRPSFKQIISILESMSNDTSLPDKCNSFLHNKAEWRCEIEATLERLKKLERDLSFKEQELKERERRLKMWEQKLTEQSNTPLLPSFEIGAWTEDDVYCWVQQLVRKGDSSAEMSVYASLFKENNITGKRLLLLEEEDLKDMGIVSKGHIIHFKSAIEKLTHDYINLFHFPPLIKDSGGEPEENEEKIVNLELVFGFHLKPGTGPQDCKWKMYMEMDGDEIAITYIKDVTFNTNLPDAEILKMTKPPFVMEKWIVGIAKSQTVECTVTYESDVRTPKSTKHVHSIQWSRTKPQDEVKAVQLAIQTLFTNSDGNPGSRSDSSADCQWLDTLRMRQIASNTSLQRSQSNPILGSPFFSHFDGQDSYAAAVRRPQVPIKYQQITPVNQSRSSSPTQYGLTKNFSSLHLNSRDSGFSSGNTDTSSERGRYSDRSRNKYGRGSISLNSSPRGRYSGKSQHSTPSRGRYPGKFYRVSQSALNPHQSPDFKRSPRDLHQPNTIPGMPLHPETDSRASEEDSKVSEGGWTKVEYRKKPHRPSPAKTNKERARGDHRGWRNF
T1 sequence (P16234 24-1089): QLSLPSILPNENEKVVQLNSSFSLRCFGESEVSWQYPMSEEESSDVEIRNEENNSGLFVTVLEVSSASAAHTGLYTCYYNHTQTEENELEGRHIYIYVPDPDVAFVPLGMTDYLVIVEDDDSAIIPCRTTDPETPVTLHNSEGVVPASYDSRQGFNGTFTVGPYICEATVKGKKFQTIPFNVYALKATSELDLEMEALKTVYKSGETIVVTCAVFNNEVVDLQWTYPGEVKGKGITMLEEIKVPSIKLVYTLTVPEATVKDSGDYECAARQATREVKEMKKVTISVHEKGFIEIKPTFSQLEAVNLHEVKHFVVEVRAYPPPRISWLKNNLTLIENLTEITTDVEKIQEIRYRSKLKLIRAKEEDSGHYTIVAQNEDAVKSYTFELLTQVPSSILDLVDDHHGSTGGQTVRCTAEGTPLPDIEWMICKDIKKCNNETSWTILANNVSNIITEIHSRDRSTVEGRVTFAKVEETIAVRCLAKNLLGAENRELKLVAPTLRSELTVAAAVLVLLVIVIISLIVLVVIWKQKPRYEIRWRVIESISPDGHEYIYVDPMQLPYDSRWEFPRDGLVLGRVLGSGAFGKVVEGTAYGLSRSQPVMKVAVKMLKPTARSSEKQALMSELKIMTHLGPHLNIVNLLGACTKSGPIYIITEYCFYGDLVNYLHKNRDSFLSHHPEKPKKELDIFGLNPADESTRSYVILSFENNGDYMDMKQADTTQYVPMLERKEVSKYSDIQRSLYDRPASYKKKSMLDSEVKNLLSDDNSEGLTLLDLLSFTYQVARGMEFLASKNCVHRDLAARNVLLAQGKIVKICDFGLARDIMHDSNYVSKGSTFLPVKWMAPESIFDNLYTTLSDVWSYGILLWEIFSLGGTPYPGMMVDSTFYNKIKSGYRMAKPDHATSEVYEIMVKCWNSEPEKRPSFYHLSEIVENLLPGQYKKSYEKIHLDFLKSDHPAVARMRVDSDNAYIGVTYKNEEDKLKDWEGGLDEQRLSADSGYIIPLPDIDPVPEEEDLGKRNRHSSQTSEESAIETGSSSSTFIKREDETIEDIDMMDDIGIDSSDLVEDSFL
T3 sequence (P36507 whole entry): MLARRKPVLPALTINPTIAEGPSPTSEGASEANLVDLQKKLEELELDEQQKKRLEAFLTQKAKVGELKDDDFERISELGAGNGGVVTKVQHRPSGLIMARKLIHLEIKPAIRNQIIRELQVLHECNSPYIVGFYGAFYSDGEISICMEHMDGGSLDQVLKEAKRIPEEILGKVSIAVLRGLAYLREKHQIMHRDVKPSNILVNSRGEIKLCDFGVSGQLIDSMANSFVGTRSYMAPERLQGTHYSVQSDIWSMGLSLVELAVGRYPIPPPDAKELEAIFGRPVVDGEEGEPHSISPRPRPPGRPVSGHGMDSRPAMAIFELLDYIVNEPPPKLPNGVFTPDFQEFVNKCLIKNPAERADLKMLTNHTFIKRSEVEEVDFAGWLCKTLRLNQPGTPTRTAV
T2 sequence (P49674 whole entry): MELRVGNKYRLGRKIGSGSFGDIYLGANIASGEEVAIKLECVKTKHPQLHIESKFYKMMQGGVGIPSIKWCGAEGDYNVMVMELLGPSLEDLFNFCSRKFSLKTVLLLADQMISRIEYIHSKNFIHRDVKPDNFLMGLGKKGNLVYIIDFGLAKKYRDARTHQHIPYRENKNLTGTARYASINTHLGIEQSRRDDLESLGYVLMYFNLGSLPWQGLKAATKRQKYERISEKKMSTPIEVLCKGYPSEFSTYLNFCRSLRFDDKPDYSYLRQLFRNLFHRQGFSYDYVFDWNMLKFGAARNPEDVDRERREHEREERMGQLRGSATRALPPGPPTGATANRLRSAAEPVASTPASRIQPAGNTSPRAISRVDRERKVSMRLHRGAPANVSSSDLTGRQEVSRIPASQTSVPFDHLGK
T4 sequence (Q8N5S9 whole entry): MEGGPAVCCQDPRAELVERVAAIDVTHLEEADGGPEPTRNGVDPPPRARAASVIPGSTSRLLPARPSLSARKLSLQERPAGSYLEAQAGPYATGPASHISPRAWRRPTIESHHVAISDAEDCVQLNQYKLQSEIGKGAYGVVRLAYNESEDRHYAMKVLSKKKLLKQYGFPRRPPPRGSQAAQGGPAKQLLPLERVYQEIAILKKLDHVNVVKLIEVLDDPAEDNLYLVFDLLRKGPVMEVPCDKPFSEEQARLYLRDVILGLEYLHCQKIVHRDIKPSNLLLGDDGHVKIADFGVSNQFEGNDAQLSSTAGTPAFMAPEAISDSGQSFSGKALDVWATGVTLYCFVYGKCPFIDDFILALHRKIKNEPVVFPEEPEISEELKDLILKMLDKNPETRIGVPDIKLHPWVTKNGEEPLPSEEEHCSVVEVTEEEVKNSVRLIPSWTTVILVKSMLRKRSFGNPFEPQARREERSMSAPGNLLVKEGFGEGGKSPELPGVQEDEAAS

**Q.** With `C=CC(=O)Nc1cccc(Nc2nc(Nc3ccc(OCCOC)c(F)c3)ncc2F)c1` [Compound 2] as the compound, how does the inhibition at 3 µM (PDGFRa) read?
**A.** 36.6%

**Q.** And the remaining activity at 3 µM (PDGFRa; [1])?
**A.** 63.9%

**Q.** And the remaining activity at 3 µM (PDGFRa; [2])?
**A.** 62.8%

**Q.** What about the inhibition at 3 µM (CK1epsilon) of the same compound?
**A.** -1.96%

**Q.** What about the remaining activity at 3 µM (CK1epsilon; [1]) of the same compound?
**A.** 102%

**Q.** And the remaining activity at 3 µM (CK1epsilon; [2])?
**A.** 102%

**Q.** What about the inhibition at 3 µM (MEK2) of the same compound?
**A.** -5.66%

**Q.** And the remaining activity at 3 µM (MEK2; [1])?
**A.** 106%

**Q.** And the remaining activity at 3 µM (MEK2; [2])?
**A.** 105%

**Q.** And the inhibition at 3 µM (CAMKK1)?
**A.** 9.31%

**Q.** And the remaining activity at 3 µM (CAMKK1; [1])?
**A.** 93.5%

**Q.** And the remaining activity at 3 µM (CAMKK1; [2])?
**A.** 87.9%

**Q.** What about the inhibition at 3 µM (MAPKAPK5/PRAK) of the same compound?
**A.** -11.6%

**Q.** What about the remaining activity at 3 µM (MAPKAPK5/PRAK; [1]) of the same compound?
**A.** 110%

**Q.** What about the remaining activity at 3 µM (MAPKAPK5/PRAK; [2]) of the same compound?
**A.** 113%

**Q.** What about the inhibition at 3 µM (ZAK/MLTK) of the same compound?
**A.** 15.7%

**Q.** And the remaining activity at 3 µM (ZAK/MLTK; [1])?
**A.** 83.7%

**Q.** And the remaining activity at 3 µM (ZAK/MLTK; [2])?
**A.** 85%

**Q.** And the inhibition at 3 µM (Aurora A)?
**A.** 88.3%

**Q.** What about the remaining activity at 3 µM (Aurora A; [1]) of the same compound?
**A.** 12.3%

**Q.** And the remaining activity at 3 µM (Aurora A; [2])?
**A.** 11%

**Q.** And the inhibition at 3 µM (AXL)?
**A.** 51.3%

**Q.** And the remaining activity at 3 µM (AXL; [1])?
**A.** 48.6%

**Q.** And the remaining activity at 3 µM (AXL; [2])?
**A.** 48.8%

**Q.** And the inhibition at 3 µM (SYK)?
**A.** 22.4%

**Q.** What about the remaining activity at 3 µM (SYK; [1]) of the same compound?
**A.** 78%

**Q.** And the remaining activity at 3 µM (SYK; [2])?
**A.** 77.1%

— patent US9492471B2, “Methods of treating a disease or disorder associated with Bruton'S Tyrosine Kinase” (Celgene Avilomics Research, Inc., priority 2013, dated 2016)
